Reference: US6953810B2, “Nicotinamide biaryl derivatives useful as inhibitors of PDE4 isozymes” (Pfizer Inc, priority 2001, dated 2005)
“Also recorded” adds a separate entry of the source.

How the values were obtained:
[1] = in vivo; cited from earlier work
[2] = system: catalytic site (Sc) of PDE4; conditions: cited from earlier work
[3] = system: late reactions to inhaled allergen; conditions: oral 15 and 30 mg, 9.5 days; cited from earlier work
[4] = system: antigen-induced lung eosinophilia; conditions: rat; cited from earlier work
[5] = system: rhinorrhea; conditions: in vivo; cited from earlier work
[6] = system: ex vivo TNF release and lymphocyte proliferation; conditions: oral dose of 300 mg; cited from earlier work
[7] = system: tumor cells; conditions: at micromolar concentrations; cited from earlier work
[8] = system: guinea-pig trachea; conditions: cited from earlier work
[9] = system: antigen-induced bronchoconstriction; conditions: guinea-pig; cited from earlier work
[10] = system: lung, BAL, airway and pleural eosinophilia; conditions: guinea-pig; cited from earlier work
[11] = system: airway hyper-responsiveness (AHR); conditions: guinea-pig; PAF-, ozone- or ACh-induced; cited from earlier work
[12] = system: SCW-induced arthritis; conditions: in vivo; cited from earlier work
[13] = system: rheumatoid arthritis patients; set-up: dose or concentration left out as unconfirmed; conditions: 35 patients; cited from earlier work
[14] = system: psoriatic lesions; conditions: two double-blind studies; cited from earlier work
[15] = system: psoriatic epidermal slices; conditions: psoriatic and keratomed psoriatic epidermal slices; cited from earlier work
[16] = system: patients; conditions: oral 5, 10, and 15 mg b.i.d., week 2; cited from earlier work
[17] = system: bone marrow culture; conditions: cited from earlier work
[18] = system: lipopolysaccharide-induced mesenteric blood flow fall; conditions: dog, in vivo; cited from earlier work
[19] = system: human peripheral blood mononuclear cells (HPBM); conditions: normal patients and subjects with atopic dermatitis; cited from earlier work
[20] = system: isolated pulmonary artery rings; conditions: cited from earlier work
[21] = system: collagen II induced arthritis; conditions: 3 mg/kg twice daily when arthritis was apparent; cited from earlier work
[22] = system: chronic relapsing experimental allergic encephalomyelitis; conditions: SJL mice; cited from earlier work
[23] = system: experimental allergic encephalomyelitis; conditions: marmoset; cited from earlier work

Nc1nc2c([nH]1)c(=O)n(CC1CC1)c(=O)n2CC1CC1 [BRL-61,063, cipamfylline]
emesis, nausea, vomiting [1]: adverse events of nausea and vomiting

COc1ccc([C@H](Cc2ccncc2)c2ccccc2)cc1OC1CCCC1 [CDP840]
emesis, nausea, vomiting [1]: without any adverse events of nausea or headache | potency at the Sc compared with SB-207,499 [2]: significantly higher potency | late reactions / late-phase response to inhaled allergen [3]: suppression; also recorded: significant inhibition

Cc1cc2c3c(c1)C(c1ccccc1)=N[C@@H](NC(=O)c1ccncc1)C(=O)N3CC2 [CI-1018]
oral potency ED50 [4]: 5 mg/kg

COc1ccc(C2CNC(=O)NC2)cc1O[C@H]1C[C@@H]2CC[C@H]1C2 [CP-80,633, atizoram]
emesis, nausea, vomiting [1]: elicit emesis

O=C(O)c1cccc(-c2ccc(CNC(=O)c3cccnc3Oc3ccc(F)cc3)cc2)c1 [Example 1, 4′-[[[2-[4-Fluorophenoxyl]-pyridine-3-carbonyl]-amino]-methyl]-biphenyl-3-carboxylic acid]
melting point: 184 to 186 °C

O=C(O)c1cccc(-c2ccc(CNC(=O)c3cccnc3Oc3ccc4c(c3)OCO4)c(F)c2)c1 [Example 3]
melting point: 190 to 192 °C

N#Cc1cccc(Oc2ncccc2C(=O)NCc2ccc(-c3cccc(C(=O)O)c3)cc2F)c1 [Example 4, 4′-[[[2-[3-Cyano-phenoxy]-pyridine-3-carbonyl]-amino]-methyl]-biphenyl-3′-fluoro-biphenyl-3-carboxylic acid]
melting point: 200 to 202 °C

CCCC1C(=O)C2=C(C(CC)=NC2C)c2nc(OC)ccc21 [Example D-22888]
rhinorrhea in the antigen-challenged pig [5]: inhibit rhinorrhea

CCNc1ncn(Cc2ccc(OC)c(OC3CCCC3)c2)c2nc(C(C)C)nc1-2 [Example V-11294A]
reduction of TNF levels and lymphocyte proliferation [6]: effective

Clc1nc2c(N3CCCC3)nc(N3CCNCC3)nc2nc1NCc1ccccc1 [Formula (0.0.55)]
inhibition of growth of tumor cells [7]: inhibit the growth of tumor cells

O=S1(=O)CCN(c2nc(NC3CC3)nc(C3CC3)n2)C1 [Formula (0.0.56)]
relaxation in a guinea-pig trachea model [8]: potent relaxant agents

CC1CC1c1nc(NC2CC2)nc(N2CCOCC2)n1 (stereo not drawn) [Formula (0.0.57)]
relaxation in a guinea-pig trachea model [8]: potent relaxant agents

O=c1c2[nH]cnc2c2cccnc2n1-c1ccccc1 [KF17625]
inhibition of antigen-induced bronchoconstriction [9]: activity | inhibition of antigen-induced lung, BAL or airway eosinophilia [10]: activity | inhibition of airway hyper-responsiveness (AHR) [11]: activity

O=c1c2c(ncn2Cc2cccnc2)c2cccnc2n1-c1ccccc1 [KF19514]
inhibition of antigen-induced bronchoconstriction [9]: activity | inhibition of antigen-induced lung, BAL or airway eosinophilia [10]: activity | inhibition of airway hyper-responsiveness (AHR) [11]: activity

COc1ccc(C(=O)Nc2c(Cl)cncc2Cl)cc1OC1CCCC1 [RP73401]
disease in SCW-induced arthritis (joint destruction, synovitis, fibrosis) [12]: significant amelioration of disease | clinical improvement with reduction in C-reactive protein and IL-6 serum levels [13]: positive trend towards clinical improvement

COc1ccc(C(=O)Nc2c(Cl)cncc2Cl)cc1OC1CCCC1 [RP-73,401, piclamilast]
emesis, nausea, vomiting [1]: elicit emesis | inhibition of IL-5 induced pleural eosinophila [10]: active | inhibition of antigen-induced lung, BAL or airway eosinophilia [10]: active | inhibition of airway hyper-responsiveness (AHR) [11]: active

O=c1c2cccnc2n(-c2cccc([N+](=O)[O-])c2)c(=O)n1Cc1ccncc1 [RS-23,544]
emesis, nausea, vomiting [1]: elicit emesis

COc1ccc(CC2CNC(=O)N2)cc1OC1CCCC1 (stereo not drawn) [Ro 20-1724]
psoriatic lesions versus vehicle [14]: improve psoriatic lesions | elevation of cAMP concentrations over controls [15]: very marked elevation

COc1ccc([C@]2(C#N)CC[C@@H](C(=O)O)CC2)cc1OC1CCCC1 [SB-207,499]
trough FEV1 versus placebo [16]: significant increases

CCCCn1c(=O)c2c(ncn2CC(C)=O)n(CCCC)c1=O [denbufylline]
mineralized nodules in bone marrow culture [17]: increase in the number of mineralized nodules | potency relative to pentoxifylline in inhibiting lipopolysaccharide-induced mesenteric blood flow fall [18]: 100 fold | inhibition of proliferation of HPBM [19]: concentration-related inhibition

Cc1[nH]c(=O)c(C#N)cc1-c1ccncc1 [milrinone]
effect on relaxant activities of isoproterenol and forskolin [20]: same effect

COc1ccc(C2CNC(=O)C2)cc1OC1CCCC1 (stereo not drawn) [rolipram]
development of disease [21]: progression of severity was halted | effect on relaxant activities of isoproterenol and forskolin [20]: potentiates the relaxant activities of isoproterenol and forskolin | clinical signs and pathological changes of chronic relapsing EAE [22]: ameliorates clinical signs and pathological changes | clinical signs of EAE [23]: suppress the appearance of clinical signs | inhibition of proliferation of HPBM [19]: concentration-related inhibition
